Data reported in patent publication US12691070B2, “Cationic lipids and preparation method thereof” (RiboX Therapeutics HK Limited, priority 2023, dated 2026).

How the values were obtained:
[1] = LNP size and polydispersity index (PDI) by dynamic light scattering; type: physicochemical; details: LNP with cirRNA (SEQ ID NO: 1); for Size: in nm (unit assumed)
How it was run: (§1)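 Ribogreen fluorescence with and without Triton X-100 gave encapsulation as 100% − (intact/lysed) signal; DLS size, PDI and zeta potential measured on a Zetasizer. Particles: 50:10:38.5:1.5 lipid mix, luciferase circRNA or mRNA, lipid:nucleotide 15 or 6, microfluidic assembly at pH 4.5, PBS-dialyzed.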

Hep G2 cells [2] = assay: In vitro expression of firefly-luciferase, Hep G2; type: cell-based; details: cirRNA (SEQ ID NO: 1) LNPs; firefly-luciferase luminescence; Hep G2 cells
How it was run: (§2)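 First, cells were dosed with RNA lipid nanoparticles encoding firefly luciferase (100 ng/mL). Second, at 72 h they were washed and lysed. Third, lysate luciferase activity was read with a luminometer.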

BALB/C mice = assay: In vivo expression, whole-body luminescence (IVIS); details: cirRNA (SEQ ID NO: 1) LNPs, BALB/C mice
Description: 6-8 week old, female BALB/C mice were injected with 0.05 mg*kg-1 of RNA-LNPs encoding for firefly-luciferase by intravenous injection. At 6 hours post injection, animals were intraperitoneally injected with 15 mg/ml of Luciferin substrate and whole-body luminescence was determined by a bioluminescent in vivo imaging system (IVIS).

Hep G2 cells [3] = assay: In vitro toxicity (CellTiter-Glo cell viability), Hep G2; type: cell-based; details: cirRNA (SEQ ID NO: 1) LNPs; Hep G2 cells;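 also: percent of untreated cells luminescence signal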
How it was run: (§3)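 RNA-LNPs 1 μg/mL; 72 h post-transfection; CellTiter-Glo luminescence read-out; % viability calculated from signal.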

[4] = RNA encapsulation efficacy by Quant-IT Ribogreen kit; type: physicochemical; details: LNP with cirRNA (SEQ ID NO: 1)
How it was run: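 Dynamic light scattering and zeta potential measurements were run on PBS-dialyzed LNPs, which had been formed by microfluidic mixing at 12 ml/min with final lipid at 1.5 mM to 6 mM. RNA content and percent encapsulation were determined by Ribogreen with and without Triton X-100.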

RAW 264.7 cells [5] = assay: In vitro toxicity (CellTiter-Glo cell viability), RAW 264.7; type: cell-based; details: cirRNA (SEQ ID NO: 1) LNPs; RAW 264.7 cells;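 also: percent of untreated cells luminescence signal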
How it was run: as §3

[6] = LNP zeta potential (Zetasizer); type: physicochemical; details: LNP with cirRNA (SEQ ID NO: 1)
How it was run: as §1

RAW 264.7 cells [7] = assay: In vitro expression of firefly-luciferase, RAW 264.7; type: cell-based; details: cirRNA (SEQ ID NO: 1) LNPs; firefly-luciferase luminescence; RAW 264.7 cells
How it was run: as §2

Row | SMILES | PDI [1] | Size [1] | In vitro Expression HepG2 (Hep G2 cells [2]) | In vivo Expression (Whole Body) (BALB/C mice) | In vitro Viability HepG2 (Hep G2 cells [3]) | Encapsulation Efficiency % [4] | In vitro Viability RAW (RAW 264.7 cells [5]) | Zeta (mV) [6] | In vitro Expression RAW (RAW 264.7 cells [7])
1 | CCCCCCCOC(=O)CCCCCCCCCN(CCCCCCCCCC(=O)OCCCCCCC)CCOC(=O)NCCN(C)C [Lipid 120, heptyl 10-(10-(heptyloxy)-10-oxodecyl)-2-methyl-6-oxo-7-oxa-2,5,10-triazaicosan-20-oate] | 0.09314 | 143.8 | 2.13E+03 | 3.33E+05 | 100% | 96% | 81% | 9.34 mV | 8.51E+03
2 | CCCCCCCCCC(=O)OCCCCCCCN(CCCCCCCCOC(=O)C(CCCCCC)CCCCCCCC)CCOC(=O)NCCCN(C)C (stereo not drawn) [Lipid 193] | 0.3634 | 66.71 | 5.28E+05 | 1.00E+06 | 94% | 94% | 3% | 15.29 mV | 1.70E+03
3 | CCCCCCCCCCC(CCCCCCCC)COC(=O)CCCCCN(CCCCCC(=O)OCC(CCCCCCCC)CCCCCCCCCC)CCCOC(=O)NCCN1CCC1 (stereo not drawn) [Lipid 372] | 0.2663 | 118.2 | 4.98E+03 | 1.10E+06 | 42% | 92% | 57% | 4.685 mV | 3.30E+02
4 | CCCCCCCCCCCOC(=O)CCCCCN(CCCCCCCCOC(=O)C(CCCCCC)CCCCCCCC)CCOC(=O)NCCCN(C)C (stereo not drawn) [Lipid 224] | 0.4284 | 86.14 | 3.58E+05 | 5.05E+05 | 90% | 97% | 73% | 27.23 mV | 6.89E+03
5 | CCCCC/C=C\C/C=C\CCCCCCCCN(CCCCCCCC/C=C\C/C=C\CCCCC)CCOC(=O)NCCN1CCOCC1 [Lipid 36, 2-(di((9Z,12Z)-octadeca-9,12-dien-1-yl)amino)ethyl (2-morpholinoethyl)carbamate] | 0.138 | 125.4 | 9.18E+04 | 1.21E+05 | 82% | 96% | 95% | −3.556 mV | 2.03E+04
6 | CCCCCCCCCCCOC(=O)CCCCCN(CCCCCCCC(=O)OC(CCCCCCCC)CCCCCCCC)CCOC(=O)NCCCN(C)C [Lipid 162] | 0.3875 | 86.23 | 4.27E+05 | 1.01E+06 | 83% | 76% | 86% | 14.91 mV | 3.76E+03
7 | CCCCC/C=C\C/C=C\CCCCCCCCN(CCCCCCCC(=O)OC(CCCCCCCC)CCCCCCCC)CCOC(=O)NCCN1CCN(C)CC1 [Lipid 135, heptadecan-9-yl 8-((2-(((2-(4-methylpiperazin-1-yl)ethyl)carbamoyl)oxy)ethyl)((9Z,12Z)-octadeca-9,12-dien-1-yl)amino)octanoate] | 0.1211 | 150.9 | 2.30E+06 | 3.51E+07 | 91% | 100% | 103% | 8.469 mV | 9.80E+04
8 | CCCCCCCCCC(=O)OCCCCCCCN(CCCCCCCCOC(=O)C(CCCCCC)CCCCCCCC)CCCOC(=O)NCCN1CCCC1 (stereo not drawn) [Lipid 357] | 0.3136 | 104.3 | 2.53E+05 | 1.85E+06 | 120% | 87% | 8% | 6.34 mV | 7.92E+03
9 | CCCCCCCC/C=C\CCCCCCCCN(CCCCCCCCOC(=O)C(CCCCCC)CCCCCCCC)CCOC(=O)NCCCn1ccnc1 (stereo not drawn) [Lipid 217] | 0.1439 | 60.05 | 2.45E+04 | 7.35E+06 | 82% | 94% | 90% | 1.061 mV | 8.05E+03
10 | CCCCCCCCCCC(CCCCCCCC)COC(=O)CCCCCN(CCCCCC(=O)OCC(CCCCCCCC)CCCCCCCCCC)CCOC(=O)NCc1ncc[nH]1 (stereo not drawn) [Lipid 171] | 0.1297 | 55.9 | 3.04E+05 | 5.09E+07 | 97% | 77% | 88% | −5.824 mV | 2.44E+05
11 | CCCCCCCCCCCOC(=O)CCCCCN(CCCCCC(=O)OCCCCCCCCCCC)CCOC(=O)NCc1ncc[nH]1 [Lipid 155, diundecyl 6,6′-((2-((((1H-imidazol-2-yl)methyl)carbamoyl)oxy)ethyl)azanediyl)dihexanoate] | 0.1182 | 92.39 | 2.72E+04 | 5.77E+07 | 111% | 76% | 101% | 15.16 mV | 5.98E+02
12 | CCCCC/C=C\C/C=C\CCCCCCCCN(CCCCCCCC/C=C\C/C=C\CCCCC)CCOC(=O)NCc1ccncc1 [Lipid 35, 2-(di((9Z,12Z)-octadeca-9,12-dien-1-yl)amino)ethyl (pyridin-4-ylmethyl)carbamate] | 0.115 | 116.3 | 2.82E+02 | 1.16E+05 | 103% | 71% | 108% | −6.298 mV | 6.25E+03
13 | CCCCCCCCCC(=O)OCCCCCCCN(CCCCCCCCOC(=O)C(CCCCCC)CCCCCCCC)CCOC(=O)NCCCN(CC)CC (stereo not drawn) [Lipid 199] | 0.436 | 97.91 | 3.74E+05 | 3.44E+05 | 87% | 94% | 0% | 13.62 mV | 1.29E+03
14 | CCCCCCCCC(CCCCCC)C(=O)OCCCCCCCCN(CCCCCCCCOC(=O)C(CCCCCC)CCCCCCCC)CCCOC(=O)NCCN1CCC1 (stereo not drawn) [Lipid 382] | 0.2452 | 145.3 | 3.97E+05 | 4.22E+06 | 42% | 94% | 84% | 4.75 mV | 5.69E+04
